Each structure is given as a SMILES string.

Results on one compound are retold here after paper PMC9454848, “BMS-986158, a Small Molecule Inhibitor of the Bromodomain and Extraterminal Domain Proteins, in Patients with Selected Advanced Solid Tumors: Results from a Phase 1/2a Trial” (Cancers, 2022).

One assay has as its system BET-regulated genes. In words: Transcriptional changes in matched pre- and on-treatment samples. It is filed as in vivo, human. The note with it: of >18,000 genes measured; Benjamini–Hochberg–adjusted p < 0.05; 41 patients. The method, then:
Summary changes from baseline in the expression of BET-regulated genes were assessed in tumor tissues and blood collected at baseline and multiple on-treatment time points after BMS-986158 administration following the 3 dosing schedules. The study also assessed summary percent changes from baseline in expression of BET-regulated genes in peripheral blood and tumors (such as HEXIM1 and C-MYC). Tissue and peripheral blood samples (at baseline and on treatment) were collected for genomic, transcriptomic, and epigenetic analyses (by DNA or mRNA) to assess pharmacodynamic changes in BET-regulated genes. These samples were analyzed using whole-exome sequencing, real-time quantitative polymerase chain reaction, and RNA-sequencing methods.
All treated patients with available biomarker measurements at baseline and ≥1 time point were included in the biomarker analyses. Blood and tumor tissue samples were collected at baseline, during treatment, and at end of treatment for biomarker analysis. Markers of selected BET-regulated genes (e.g., HEXIM1) were analyzed with summary statistics for percent changes in expression from available matched pre- and on-treatment samples over time relative to baseline. Statistically significant changes in gene expression were determined using the Benjamini–Hochberg procedure to calculate an adjusted p value with an α level of 0.05.

For assay [1], the system named is patient-derived xenograft models. More on the design: method as in PMID 34543572. The note with it: mouse, low doses; 9 of 19 models; cited from earlier work.

Turning to `Cc1nnn(C)c1-c1cnc2c3ccc(C(C)(C)O)cc3n([C@H](c3ccccc3)C3CCOCC3)c2c1` [BMS-986158], the “Genes with significant changes in expression” value with BET-regulated genes was determined as 4500. The “Patient-derived xenograft models with antitumor activity” value in assay [1] is reported as 47%.
